This note sets out measurements from publication PMC8036603, “Small Molecule Inhibitors of White Spot Syndrome Virus: Promise in Shrimp Seedling Culture” (International Journal of Molecular Sciences, 2021).

Assay type in all cases: in vivo, Litopenaeus vannamei
In series [1] the test system is Shrimp (L. vannamei) larvae. Briefly: Acute toxicity assay in shrimp larvae. As to conditions: after 72 h of exposure. Here is the method:
Shrimp (L. vannamei) larvae (total length: 0.5 ± 0.04 cm, body weight: 4.2 ± 0.4 mg, mean ± SD) were provided by Zhejiang Mariculture Research Institute Qingjiang Station (Wenzhou, China). The larvae were maintained in a culture pond at 28 °C, fed four times a day with commercial feed pellets, and collected randomly for PCR testing to verify the WSSV-free status prior to the trial.
Acute toxicity of the coumarin derivatives was investigated by exposing larvae to a range of compound concentrations, from 0.1 mg/L to 100 mg/L of coumarin derivatives, where the dose setting was based on the data from preliminary tests in our laboratory. A DMSO-control (2%, v/v, the highest percentage of DMSO in treatments) served as the control. During the experiment, every 20 larvae were moved into six-well plates filled with 6 mL/per well freshly prepared test solutions for a 72-h incubation at 28 °C with a natural photoperiod. […] To avoid deterioration of water quality, dead shrimps were immediately removed at the point of observation. Three replicate experiments were performed.
Compound response curves were represented by a logistic sigmoidal function with a maximal effect level (Amax) and Hill coefficient representing the sigmoidal transition (Origin 8.1; http://www.originlab.com, accessed on 25 March 2021). Statistical analyses were performed using SPSS (version 18.0) statistical software (SPSS Inc., Chicago, IL, USA). The LC50 and EC50 values with 95% CIs were calculated using probit analysis. Virus titers were log10-transformed prior to statistical analyses. Unpaired Student’s t-tests were used to compare coumarin-treated samples and negative-control DMSO samples for determining significance and data are presented as mean values ± SD.

For series [2], the system named is white spot syndrome virus (WSSV). As to the kind of experiment: Pre-exposure (pre-treatment) of larvae to compound before WSSV infection. As to conditions: for change in copy number of the viral genome, pre-exposure vs virus alone: larvae exposed up to 8 h prior to WSSV infection, 10 mg/L; for time to which shrimp death was delayed: pre-exposure 10 mg/L, untreated 100% mortality by 72 h. As to the method: For pre-treatment, C2/C7 (final concentration of 10 mg/L) was applied to shrimp larvae for 1, 4, and 8 h, followed by addition of WSSV (while the coumarin compounds were simultaneously removed) at a final viral titer of 1.6 × 10^5 copies/µL. The surviving shrimps were euthanized with MS-222 and frozen at −80 °C until being processed. The copy number of viral genome in samples was quantified by RT-qPCR.

For series [3] the test system is unchanged. Briefly: Anti-WSSV activity in shrimp larvae, co-incubation, copy number of viral genome by RT-qPCR. As to conditions: for copy number of the viral genome in sick or dead shrimp homogenates: 24, 48 and 72 hpi, up to 10 mg/L; for inhibitory efficiency on WSSV replication: six-point dose-response, viral genome copy number in larvae. (In qPCR the cycle at which signal appears reflects the starting amount.)

Where [4] appears, read: WSSV-infected larvae, copy number of viral genome, 72 h, 95% CI in brackets.

“And” between values parts separate entries of the source, which are not always exact repeats. Identical values can stand only once. Where only a bound is given, the exact number is not on record here.

For the compound `Cc1ccc(C2C(C#N)=C(N)Oc3c2c(=O)oc2ccccc32)cc1` (centres unmarked) [C2, 2-amino-5-oxo-4-(p-tolyl)-4H,5H-pyrano[3,2-c]chromene-3-carbonitrile], in series [1], the “signs of toxicity at the saturation concentration” value is “No signs of toxicity were observed”. Besides, in series [2], the “change in copy number of the viral genome, pre-exposure vs virus alone” value is “slight changes” and the “time to which shrimp death was delayed” value is recorded as 96 hpi. Moreover, in series [3], the “copy number of the viral genome in sick or dead shrimp homogenates” value is given as “down-regulated” and the “inhibitory efficiency on WSSV replication” value was “exceeded 90%”. The “EC50 (mg/L; 95% CI), median effective concentration” value in series [3] (setting [4]) was 05.993 (5.327~6.851) mg/L. Also, the EC50 in series [3] (Whispovirus xiabaidian, 72 h, read-out: EC50 (mg/L; 95% CI), median effective concentration, WSSV-infected larvae, copy number of viral genome, 72 h, 95% CI in brackets) was less than 10 mg/L.

As for “2-amino-4-(4-chlorophenyl)-5-oxo-4H,5H-pyrano[3,2-c]chromene-3-carbonitrile [C7]”, in series [1], the “signs of toxicity at the saturation concentration” value is listed as “No signs of toxicity were observed”. In series [2], the “change in copy number of the viral genome, pre-exposure vs virus alone” value is reported as “slight changes” and the “time to which shrimp death was delayed” value is recorded as 96 hpi. In series [3], the “copy number of the viral genome in sick or dead shrimp homogenates” value is “down-regulated” and the “inhibitory efficiency on WSSV replication” value is “exceeded 90%”. Also, in series [3] (setting [4]), the “EC50 (mg/L; 95% CI), median effective concentration” value was < 10 mg/L and 05.727 (5.069~6.577) mg/L. Also, the “MAR (%), maximum antiviral response” value in series [3] (WSSV-infected larvae, viral genome copy number normalized to no treatment, low value = strong inhibition, mean ± SD) amounted to 03.154 ± 1.157%.
